Source: ChEMBL document CHEMBL4673286, “Selective recognition of DNA parallel G-quadruplexes by 3,8a-disubstituted indolizinones” (Bioorg Med Chem, 2021)
Activity calls are given as the source filed them. The calls are words filed in the database; no cut-off is given here.

Key:
MCF7 = test: Cytotoxicity against human MCF7 cells assessed as reduction in cell viability at 10 uM incubated for 72 hrs by MTT assay relative to control; assay type: functional
Quadruplex DNA [1] = test: Effect on c-myc G-quadruplex DNA (unknown origin) configuration in PBS buffer 40 mM K+ at 5 uM by spectropolarimeter; assay type: ADME, nucleic-acid assay
Quadruplex DNA [2] = test: Binding affinity to c-myc G-quadruplex DNA (unknown origin) in PBS buffer (40 mM K+, pH 7.4) by spectrofluorimetric analysis; assay type: nucleic-acid assay
Quadruplex DNA [3] = test: Effect on c-myc G-quadruplex DNA (unknown origin) configuration in water at 5 uM spectropolarimeter; assay type: ADME, nucleic-acid assay; conditions: buffer
HeLa = test: Cytotoxicity against human HeLa cells assessed as reduction in cell viability at 10 uM incubated for 72 hrs by MTT assay relative to control; assay type: functional
HT-1080 = test: Cytotoxicity against human HT-1080 cells assessed as reduction in cell viability at 10 uM incubated for 72 hrs by MTT assay relative to control; assay type: functional
Quadruplex DNA [4] = test: Binding affinity to c-myc G-quadruplex DNA (unknown origin) in PBS buffer 40 mM K+ at 5 uM by spectrofluorimetric analysis; assay type: nucleic-acid assay
[5] = Drug localization in nucleus of human HeLa cells at 10 uM incubated for 4 hrs by propidium iodide staining based by confocal microscopy; assay type: ADME
[6] = Drug localization in nucleus of human MCF7 cells at 10 uM incubated for 4 hrs in presence of urea by propidium iodide staining based by confocal microscopy; assay type: ADME, cell-based; conditions: mcf7, 4 h
[7] = Binding affinity to TBA DNA sequence (unknown origin) by spectrofluorimetric analysis
[8] = Binding affinity to dx12ab DNA sequence (unknown origin) by spectrofluorimetric analysis
[9] = Drug localization in nucleus of human HeLa cells at 10 uM incubated for 4 hrs in presence of urea by propidium iodide staining based by confocal microscopy; assay type: ADME
[10] = Drug localization in nucleus of human MCF7 cells at 10 uM incubated for 4 hrs by propidium iodide staining based by confocal microscopy; assay type: ADME, cell-based; conditions: mcf7, 4 h
[11] = Drug localization in human HeLa cells at 10 uM incubated for 4 hrs by MitoTracker Deep Red and Lyso-Tracker Red DND-99 staining based by confocal microscopy; assay type: ADME, cell-based
[12] = Drug localization in cytoplasm of human HeLa cells at 10 uM incubated for 4 hrs by propidium iodide staining based by confocal microscopy; assay type: ADME
[13] = Drug localization in cytoplasm of human MCF7 cells at 10 uM incubated for 4 hrs by propidium iodide staining based by confocal microscopy; assay type: ADME, cell-based; conditions: mcf7, 4 h
DNA = test: Binding affinity to ds26 DNA sequence (unknown origin) by spectrofluorimetric analysis; assay type: nucleic-acid assay

Row | Compound | inhibition at 10 µM (MCF7) | Activity (Quadruplex DNA [1]) | K (Quadruplex DNA [2]) | Activity (Quadruplex DNA [3]) | inhibition at 10 µM (HeLa) | inhibition at 10 µM (HT-1080) | Activity (Quadruplex DNA [4]) | Drug uptake [5] | Drug uptake [6] | K [7] | K [8] | Drug uptake [9] | Drug uptake [10] | Drug uptake [11] | Drug uptake [12] | Drug uptake [13] | K (DNA)
1 | O=C1C=C(c2ccc([N+](=O)[O-])cc2)N2C=CC=CC12c1ccccn1 (stereo not given) | 12.5% | Not Active | inactive | Not Active | 2.9% | -4.2% | Active | – | – | – | – | – | – | – | – | – | –
2 | O=c1[nH]cc(F)c(=O)[nH]1 [FLUOROURACIL] | 41.9% | – | – | – | 44% | 65.3% | – | – | – | – | – | – | – | – | – | – | –
3 | O=C1C=C(c2ccccn2)N2C=CC=CC12c1ccccn1 (stereo not given) | 7.9% | Not Active | – | Not Active | 3.7% | 8.5% | Active | – | – | – | – | – | – | – | – | – | –
4 | COc1ccc(C2=CC(=O)C3(c4ccccn4)C=CC=CN23)cc1 (stereo not given) | 0.6% | Not Active | – | Not Active | 3.2% | 46.1% | Active | – | – | – | – | – | – | – | – | – | –
5 | O=C1C=C(c2cccnc2)N2C=CC=CC12c1ccccn1 (stereo not given) | 16.5% | Not Active | – | Not Active | 3% | 30.3% | Active | – | – | – | – | – | – | – | – | – | –
6 | O=C1C=C(c2ccc3ccccc3c2)N2C=CC=CC12c1ccccn1 (stereo not given) | 24.3% | Not Active | – | Not Active | 11.1% | 30.4% | Active | Active | Active | inactive | inactive | Active | Active | Active | Active | Active | inactive
7 | O=C1C=C(c2ccncc2)N2C=CC=CC12c1ccccn1 (stereo not given) | 19.3% | Not Active | – | Not Active | 5.9% | 1.8% | Active | – | – | – | – | – | – | – | – | – | –
8 | O=C1C=C(c2ccc(-c3ccccc3)cc2)N2C=CC=CC12c1ccccn1 (stereo not given) | 14.3% | Not Active | – | Not Active | 5.7% | 32.2% | Active | – | – | – | – | – | – | – | – | – | –
9 | O=C1C=C(c2ccc3ccccc3c2)N2C=CC=CC12C(F)(F)F (stereo not given) | -11.9% | Not Active | – | Not Active | -1.3% | 2.9% | Active | – | – | – | – | – | – | – | – | – | –
10 | O=C1C=C(c2ccc(Cl)cc2)N2C=CC=CC12c1ccccn1 (stereo not given) | 4.7% | Not Active | – | Not Active | 16.6% | 15.6% | Active | – | – | – | – | – | – | – | – | – | –
11 | O=C1C=C(c2ccccc2)N2C=CC=CC12C(F)(F)F (stereo not given) | 18.7% | Not Active | inactive | Not Active | -4.7% | 15.9% | Active | – | – | – | – | – | – | – | – | – | –
